Data from US9161935B2 (TEVA PHARMACEUTICAL INDUSTRIES, LTD., priority 2012, dated 2015).

What was measured:
[1] = tested on: Subjects with moderate to severe Crohn's disease (CD); assay: Phase IIb trial LAQ-CD-202 (Example 3); format: in vivo, human
Method: Capsules should be swallowed with a glass of water.
On Days 1 and 2, this dose is administered twice daily (BID) as a loading dose (total daily dose 0.5 mg). Dosing is once daily (QD) from Day 3 onwards.
On Days 1 and 2, this dose is administered BID as a loading dose (total daily dose 1 mg). Dosing is QD from Day 3 onwards.
Subjects with moderate to severe Crohn's disease (CD), as determined by a Crohn's Disease Activity Index (CDAI) score of 220-450 (inclusive).
Remission: subjects with CDAI <150 subjects not designated a Treatment Failure (TF).
Response 100: reduction of CDAI by at least 100 points compared to Baseline in subjects not designated a Treatment Failure (TF). Any subject with Remission is also considered to have achieved Response 100.
Response 70: reduction of CDAI by at least 70 points compared to Baseline, in subjects not designated a TF.
(§1) IBDQ Response: An increase from baseline in total IBDQ score of ≧16 points.
(§2) IBDQ Remission: A total IBDQ score of >170 points.
Treatment duration is 8 weeks. Scheduled in-clinic visits are conducted at Screening, Baseline (Week 0), and at Weeks 1, 2, 4, 6, and 8. Unscheduled visits for safety or for any other reason may be conducted at any time during the study
A loading dose regimen of the study drug is given during the first 2 days of treatment (Day 1 [Baseline] and Day 2). The first loading dose of the study drug is administered at the site. The loading dose doubles the intended dose for the first 2 days and is administered BID with 12-hour intervals between dosing. Thereafter, starting on Day 3, the dosing regimen consists of the intended dose QD.
During the study period the CDAI score is assessed in addition to routine safety. Subjects are required to maintain CDAI diaries for each day of the Screening period and, if randomized, on each day of the treatment period. The scores obtained from the 7 consecutive diaries completed prior to the Baseline visit and to each of Weeks 1, 2, 4, 6, and 8 contribute to a total CDAI score at each of these time points.
The primary efficacy endpoint is the proportion of subjects achieving Remission (CDAI <150) at Week 8 with subjects not designated a Treatment Failure (TF).
Secondary Efficacy Endpoints: • Proportion of subjects achieving Response 70 at Week 8. • Proportion of subjects achieving Response 100 at Week 8. • Mean change in total IBDQ score from Baseline to Week 8. • Proportion of subjects with an IBDQ Response at Week 8. • Proportion of subjects with IBDQ Remission at Week 8.

[2] = tested on: Moderate to Severe Crohn's Disease Patients; assay: Phase III 52-week maintenance of remission study LAQ-CD-303 (Example 4); format: in vivo, human
Method: A phase III, randomized, double-blind, placebo-controlled 52-week maintenance of remission study is conducted in active moderate to severe Crohn's disease patients.
Subjects with a Response during the 8-week induction studies LAQ-CD-202, LAQ-CD-301, or LAQ-CD-302 are re-randomized into this placebo-controlled maintenance study. Response in those induction studies was defined as a Crohn's Disease Activity Index (CDAI) reduction of at least 70 points from Baseline and CDAI <220 at Week 8 of the induction study in the absence of treatment failure (TF); in particular, this included subjects in Remission. In those 3 induction studies, TF was defined as follows: any new medication/treatment (including surgery) for Crohn's disease (CD) or dose increase not allowed by the protocol, throughout the study period; any early termination from the study was also regarded as TF. No de novo subjects are included in this study.
Remission: Subjects with CDAI <150 with no Treatment Failure (TF) during the course of the study.
Steroid Free Remission: Subjects achieving both Remission and steroid free.
as §1, §2
Treatment duration is 52 weeks. Scheduled in-clinic visits are conducted at Baseline (Week 0), and at Weeks 2, 4, 8, 12, 16, 20, 28, 36, 44, and 52. The Week 0 visit for this maintenance study is the same as the Week 8 visit in the induction study. Unscheduled visits for safety or for any other reason may be conducted at any time during the study.
Primary Efficacy Endpoint: • The primary endpoint is evaluated for subjects who belong to the PEC. • The proportion of subjects in Remission at Week 52.
Secondary Efficacy Endpoints: • The secondary endpoints are evaluated for subjects who belong to the PEC. • The proportion of subjects in Sustained Remission (defined as Remission at Week 36 and Week 52). • The proportion of subjects with Steroid-free Remission at Week 52. • Mean change in total IBDQ score from Baseline to Week 52. • Proportion of subjects with an IBDQ Response at Week 52. • Proportion of subjects with IBDQ Remission at Week 52.

[3] = in vivo; cited from earlier work

## CCN(C(=O)c1c(O)c2c(Cl)cccc2n(C)c1=O)c1ccccc1 [laquinimod]
[1]; 0.25 mg/day
  improve IBDQ score from Baseline by Week 8: effective
  induce IBDQ Response and/or IBDQ Remission by Week 8: effective
  induce Remission (CDAI <150) by Week 8: effective
  induce Response 70 and/or Response 100 by Week 8: effective
[1]; 0.5 mg/day
  improve IBDQ score from Baseline by Week 8: effective
  induce IBDQ Response and/or IBDQ Remission by Week 8: effective
  induce Remission (CDAI <150) by Week 8: effective
  induce Response 70 and/or Response 100 by Week 8: effective
[2]; 0.25 mg/day
  improve and/or maintain IBDQ score by Week 52: effective
  induce and/or maintain IBDQ Remission by Week 52: effective
  induce and/or maintain IBDQ Response by Week 52: effective
  induce and/or maintain Remission by Week 52: effective
  induce and/or maintain steroid-free Remission by Week 52: effective
  sustain Remission (Remission at Week 36 and Week 52): effective
[2]; 0.5 mg/day
  improve and/or maintain IBDQ score by Week 52: effective
  induce and/or maintain IBDQ Remission by Week 52: effective
  induce and/or maintain IBDQ Response by Week 52: effective
  induce and/or maintain Remission by Week 52: effective
  induce and/or maintain steroid-free Remission by Week 52: effective
  sustain Remission (Remission at Week 36 and Week 52): effective
[3]
  oral bioavailability: high
